Data: patent US20240034736A1, “HSD17B13 INHIBITORS AND USES THEREOF” (FL2022-001, Inc., priority 2020, published 2024)

Molecular target: Recombinant human HSD17B13 enzyme (Homo sapiens (Human), UniProt Q7Z5P4)
Assay: HSD17b13 NAD(P)H-Glo Biochemical Assay
Conditions: for IC50: 50 uM estradiol, 1 mM NAD+, read-out: HSD17β13 IC50; for inhibition at 10 µM: read-out: HSD17β13 inhibition at 10 uM; for inhibition at 100 µM: read-out: HSD17β13 inhibition at 100 uM
In short: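 Recombinant human HSD17B13 was pre-incubated with inhibitor for 20 min at RT in 20 mM Tris pH 7.4 with 0.002% Tween-20 and 0.02% BSA. Reaction then ran with 50 uM estradiol and 1 mM NAD+ (final) for 3 h at 37° C. NADH formed was detected by NAD(P)H-Glo luminescence after 1 h at RT.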

Sequence of Recombinant human HSD17B13 enzyme (Q7Z5P4 20-300): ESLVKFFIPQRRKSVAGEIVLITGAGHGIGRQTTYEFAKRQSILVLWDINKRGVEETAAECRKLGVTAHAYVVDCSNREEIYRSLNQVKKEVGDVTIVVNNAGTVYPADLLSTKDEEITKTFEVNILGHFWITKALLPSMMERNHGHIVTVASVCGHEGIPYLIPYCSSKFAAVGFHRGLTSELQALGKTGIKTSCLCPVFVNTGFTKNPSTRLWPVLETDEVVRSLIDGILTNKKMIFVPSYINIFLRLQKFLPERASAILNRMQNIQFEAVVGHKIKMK

| Compound | IC50 | further results |
| --- | --- | --- |
| Cc1nn(-c2cc(C(F)(F)F)c(F)c(O)c2F)c2cnc(N3CCO[C@H](c4ccccc4)C3)cc12 [Compound 19.108, (R)-2,6-Difluoro-3-(3-methyl-5-(2-phenylmorpholino)-1H-pyrazolo[3,4-c]pyridin-1-yl)-5-(trifluoromethyl)phenol] | < 100 nM |  |
| Cc1nn(-c2cc(C(F)(F)F)c(F)c(O)c2F)c2cnc(N3CCO[C@@H](c4ccccc4)C3)cc12 [Compound 19.109, (S)-2,6-Difluoro-3-(3-methyl-5-(2-phenylmorpholino)-1H-pyrazolo[3,4-c]pyridin-1-yl)-5-(trifluoromethyl)phenol] | 100 to 1000 nM |  |
| Cc1nn(-c2cc(C(F)(F)F)c(Cl)c(O)c2F)c2cc(F)c(N3CCN(S(C)(=O)=O)CC34CC4)cc12 [Compound 19.110, 2-Chloro-6-fluoro-5-(6-fluoro-3-methyl-5-(7-(methylsulfonyl)-4,7-diazaspiro[2.5]octan-4-yl)-1H-indazol-1-yl)-3-(trifluoromethyl)phenol] | < 100 nM |  |
| CN(c1ccc2c(c1)c(C(N)=O)nn2-c1cc(C(F)(F)F)c(F)c(O)c1F)C1CCOCC1 [Compound 19.111, 1-(2,4-Difluoro-3-hydroxy-5-(trifluoromethyl)phenyl)-5-(methyl(tetrahydro-2H-pyran-4-yl)amino)-1H-indazole-3-carboxamide] | 100 to 1000 nM |  |
| CNC(=O)c1nn(-c2cc(C(F)(F)F)c(F)c(O)c2F)c2ccc(N(C)C3CCOCC3)cc12 [Compound 19.112, 1-(2,4-Difluoro-3-hydroxy-5-(trifluoromethyl)phenyl)-N-methyl-5-(methyl(tetrahydro-2H-pyran-4-yl)amino)-1H-indazole-3-carboxamide] | 1000 to 30000 nM |  |
| CN(C)C(=O)c1nn(-c2cc(C(F)(F)F)c(F)c(O)c2F)c2ccc(N(C)C3CCOCC3)cc12 [Compound 19.113, 1-(2,4-Difluoro-3-hydroxy-5-(trifluoromethyl)phenyl)-N,N-dimethyl-5-(methyl(tetrahydro-2H-pyran-4-yl)amino)-1H-indazole-3-carboxamide] | 1000 to 30000 nM |  |
| Cc1nn(-c2cc(C(F)(F)F)c(F)c(O)c2F)c2cc(Cl)c(N3CCOCC34CC4)nc12 [Compound 19.114, 3-(6-Chloro-3-methyl-5-(7-oxa-4-azaspiro[2.5]octan-4-yl)-1H-pyrazolo[4,3-b]pyridin-1-yl)-2,6-difluoro-5-(trifluoromethyl)phenol] | < 100 nM |  |
| Cc1nn(-c2cc(C(F)(F)F)c(F)c(O)c2F)c2cc(Cl)c(N(C)C3CCOCC3)nc12 [Compound 19.115, 3-(6-Chloro-3-methyl-5-(methyl(tetrahydro-2H-pyran-4-yl)amino)-1H-pyrazolo[4,3-b]pyridin-1-yl)-2,6-difluoro-5-(trifluoromethyl)phenol] | < 100 nM |  |
| Cc1nn(-c2cc(C(F)(F)F)c(Cl)c(O)c2F)c2cnc(N3CCOCC34CC4)cc12 [Compound 19.116, 2-Chloro-6-fluoro-5-(3-methyl-5-(7-oxa-4-azaspiro[2.5]octan-4-yl)-1H-pyrazolo[3,4-c]pyridin-1-yl)-3-(trifluoromethyl)phenol] | < 100 nM |  |
| CCCCCOc1ncc2c(n1)c(C)nn2-c1cc(C(F)(F)F)c(F)c(O)c1F [Compound 19.117, 2,6-Difluoro-3-(3-methyl-5-(pentyloxy)-1H-pyrazolo[4,3-d]pyrimidin-1-yl)-5-(trifluoromethyl)phenol] | 100 to 1000 nM |  |
| Cc1nn(-c2cc(C(F)(F)F)c(F)c(O)c2F)c2cnc(N3CCNCC3)nc12 [Compound 19.118, 2,6-Difluoro-3-(3-methyl-5-(piperazin-1-yl)-1H-pyrazolo[4,3-d]pyrimidin-1-yl)-5-(trifluoromethyl)phenol] | 1000 to 30000 nM |  |
| Cc1nn(-c2nc(C(F)(F)F)c(F)c(O)c2F)c2cnc(N3CCOCC34CC4)cc12 [Compound 19.119, 3,5-Difluoro-2-(3-methyl-5-(7-oxa-4-azaspiro[2.5]octan-4-yl)-1H-pyrazolo[3,4-c]pyridin-1-yl)-6-(trifluoromethyl)pyridin-4-ol] | 1000 to 30000 nM |  |
| Cc1nn(-c2cccc(O)c2C#N)c2cnc(N(C)C3CCOCC3)cc12 [Compound 19.120, 2-Hydroxy-6-(3-methyl-5-(methyl(tetrahydro-2H-pyran-4-yl)amino)-1H-pyrazolo[3,4-c]pyridin-1-yl)benzonitrile] |  | inhibition at 10 µM: 25% |
| Cc1nn(-c2cc(O)c(F)c(C(=O)O)c2)c2cnc(N3CCOCC34CC4)cc12 [Compound 19.121, 2-Fluoro-3-hydroxy-5-(3-methyl-5-(7-oxa-4-azaspiro[2.5]octan-4-yl)-1H-pyrazolo[3,4-c]pyridin-1-yl)benzoic Acid] |  | inhibition at 10 µM: < 20% |
| CNC(=O)c1cc(-n2nc(C)c3cc(N4CCOCC45CC5)ncc32)cc(O)c1F [Compound 19.122, 2-Fluoro-3-hydroxy-N-methyl-5-(3-methyl-5-(7-oxa-4-azaspiro[2.5]octan-4-yl)-1H-pyrazolo[3,4-c]pyridin-1-yl)benzamide] |  | inhibition at 10 µM: 20% |
| CS(=O)(=O)N1CCN(c2cc3cnn(-c4cc(O)cc(C#N)c4)c3cn2)CC1 [Compound 19.123, 3-Hydroxy-5-(5-(4-(methylsulfonyl)piperazin-1-yl)-1H-pyrazolo[3,4-c]pyridin-1-yl)benzonitrile] |  | inhibition at 30 µM (read-out: HSD17β13 inhibition at 30 uM): 30% |
| CS(=O)(=O)N1CCN(c2ccc3c(cnn3-c3ccc(F)c(O)c3)c2)CC1 [Compound 20, 2-Fluoro-5-(5-(4-(methylsulfonyl)piperazin-1-yl)-1H-indazol-1-yl)phenol] | 1000 to 30000 nM |  |
| Oc1cc(-n2ncc3cc(N4CCC(O)CC4)ccc32)ccc1F [Compound 20.01, 1-(1-(4-Fluoro-3-hydroxy-phenyl)-1H-indazol-5-yl)-piperidin-4-ol] | 1000 to 30000 nM |  |

| Compound | IC50 | further results |
| --- | --- | --- |
| O=C(O)C1CCN(c2ccc3c(cnn3-c3ccc(F)c(O)c3)c2)CC1 [Compound 20.02, 1-(1-(4-Fluoro-3-hydroxy-phenyl)-1H-indazol-5-yl)-piperidine-4-carboxylic acid] | 1000 to 30000 nM |  |
| CNC(=O)C1CCN(c2ccc3c(cnn3-c3ccc(F)c(O)c3)c2)CC1 [Compound 20.03, 1-(1-(4-Fluoro-3-hydroxy-phenyl)-1H-indazol-5-yl)-N-methylpiperidine-4-carboxamide] |  | inhibition at 100 µM: 40% |
| CN(C)C(=O)C1CCN(c2ccc3c(cnn3-c3ccc(F)c(O)c3)c2)CC1 [Compound 20.04, 1-(1-(4-Fluoro-3-hydroxy-phenyl)-1H-indazol-5-yl)-N,N-dimethylpiperidine-4-carboxamide] |  | inhibition at 10 µM: < 20% |
| CC(=O)N1CCN(c2ccc3c(cnn3-c3ccc(F)c(O)c3)c2)CC1 [Compound 20.05, 1-(4-(1-(4-Fluoro-3-hydroxyphenyl)-1H-indazol-5-yl)piperazin-1-yl)ethan-1-one] |  | inhibition at 100 µM: < 20% |
| CS(=O)(=O)N1CCN(c2ccc3c(cnn3-c3cc(O)c(F)c(F)c3)c2)CC1 [Compound 21, 2,3-Difluoro-5-(5-(4-(methylsulfonyl)piperazin-1-yl)-1H-indazol-1-yl)phenol] | 100 to 1000 nM |  |
| Cc1nn(-c2cc(O)c(F)c(F)c2)c2ccc(N3CCN(S(C)(=O)=O)CC3)cc12 [Compound 21.01, 2,3-Difluoro-5-(3-methyl-5-(4-(methylsulfonyl)piperazin-1-yl)-1H-indazol-1-yl)phenol] | 100 to 1000 nM |  |
| COC1CCN(c2ccc3c(cnn3-c3ccc(F)c(O)c3)c2)CC1 [Compound 21.02, 2-Fluoro-5-(5-(4-methoxy-piperidin-1-yl)-1H-indazol-1-yl)phenol] | 1000 to 30000 nM |  |
| CC(C)c1nn(-c2cc(O)c(F)c(F)c2)c2ccc(N3CCN(S(C)(=O)=O)CC3)cc12 [Compound 21.03, 2,3-Difluoro-5-(3-isopropyl-5-(4-(methylsulfonyl)piperazin-1-yl)-1H-indazol-1-yl)phenol] | 1000 to 30000 nM |  |
| CC(C)S(=O)(=O)N1CCN(c2ccc3c(cnn3-c3cc(O)c(F)c(F)c3)c2)CC1 [Compound 21.04, 2,3-Difluoro-5-(5-(4-(isoprop-ylsulfonyl)piperazin-1-yl)-1H-indazol-1-yl)phenol] | 100 to 1000 nM |  |
| CS(=O)(=O)NC1CCN(c2ccc3c(cnn3-c3cc(O)c(F)c(F)c3)c2)CC1 [Compound 21.05, N-(1-(1-(3,4-Difluoro-5-hydroxyphenyl)-1H-indazol-5-yl)piperidin-4-yl)methane-sulfonamide] | 1000 to 30000 nM |  |
| CS(=O)(=O)C1CCN(c2ccc3c(cnn3-c3cc(O)c(F)c(F)c3)c2)CC1 [Compound 21.06, 2,3-Difluoro-5-(5-(4-(methyl-sulfonyl)piperidin-1-yl)-1H-indazol-1-yl)phenol] | 1000 to 30000 nM |  |
| CS(=O)(=O)NC1CN(c2ccc3c(cnn3-c3cc(O)c(F)c(F)c3)c2)C1 [Compound 21.07, N-(1-(1-(3,4-Difluoro-5-hydroxyphenyl)-1H-indazol-5-yl)azetidine-3-yl)methane-sulfonamide] | 1000 to 30000 nM |  |
| O=S1(=O)CCN(c2ccc3c(cnn3-c3cc(O)c(F)c(F)c3)c2)CC1 [Compound 21.08, 4-(1-(3,4-Difluoro-5-hydroxy-phenyl)-1H-indazol-5-yl)-thiomorpholine 1,1-dioxide] | 1000 to 30000 nM |  |
| O=S(=O)(c1ccccc1)N1CCN(c2ccc3c(cnn3-c3cc(O)c(F)c(F)c3)c2)CC1 [Compound 21.09, 2,3-Difluoro-5-(5-(4-(phenyl-sulfonyl)piperazin-1-yl)-1H-indazol-1-yl)phenol] | 100 to 1000 nM |  |
| O=S(=O)(Cc1ccccc1)N1CCN(c2ccc3c(cnn3-c3cc(O)c(F)c(F)c3)c2)CC1 [Compound 21.10, 5-(5-(4-(Benzylsulfonyl)-piperazin-1-yl)-1H-indazol-1-yl)-2,3-difluorophenol] | 100 to 1000 nM |  |
| Cc1cc2c(cnn2-c2cc(O)c(F)c(F)c2)cc1N1CCN(S(C)(=O)=O)CC1 [Compound 21.11, 2,3-Difluoro-5-(6-methyl-5-(4-(methylsulfonyl)piperazin-1-yl)-1H-indazol-1-yl)phenol] | 1000 to 30000 nM |  |
| CS(=O)(=O)N1CCN(c2ccc3c(c2)c(C2CC2)nn3-c2cc(O)c(F)c(F)c2)CC1 [Compound 21.12, 5-(3-Cyclopropyl-5-(4-(meth-ylsulfonyl)piperazin-1-yl)-1H-indazol-1-yl)-2,3-difluoro-phenol] | 1000 to 30000 nM |  |
